According to patent US20070275052A1, “Pharmaceutical compositions containing sterol inhibitors” (Glenmark Pharmaceuticals Limited, priority 2006, published 2007):

Assay: Initial experiments: drug release of ezetimibe having particle size about 25 microns
Assay type: physicochemical
Conditions: ezetimibe particle size about 25 microns
Source text: The pharmaceutical compositions of present invention can be prepared with techniques well known in the art, preferably, direct compression, dry granulation and wet granulation.

O=C1[C@H](CC[C@H](O)c2ccc(F)cc2)[C@@H](c2ccc(O)cc2)N1c1ccc(F)cc1 [ezetimibe, Ezetimibe]
release of the drug: 40-50%
